# Results as given in US8956642B2, “Bupivacaine formulation in a polyorthoester carrier” (Medtronic, Inc., priority 2008, dated 2015).
# Legend:
# [1] = tested on: acetic acid induced bladder hypermotility (frequency of bladder contraction reflexes); assay: Epidural infusion of bupivacaine in rat model of bladder pain, intravesical acetic acid infusion; type: in vivo; conditions: epidural infusion 25 μg/day
# Experimental: (§1) FIG. 6 is a graphic representation of epidural infusion of bupivacaine in rats treated with an intravesical infusion of acetic acid as described in Example 4. Baseline bladder activity was measured before epidural drug treatment. The columns and error bars represent the mean and SEM values of 10 rats per group. Asterisks indicate statistically significant dose effects compared to baseline as determined by post-hoc Dunnett Multiple Comparison Test.
# (§2) An animal model that has been used frequently to study pelvic pain conditions is a rat model of bladder pain. In this model, a female rat was lightly anesthetized with isoflurane and a transurethral catheter was placed into the bladder. The catheter was connected to a pressure transducer so that the pressure within the bladder could be continuously monitored and recorded over time. Fluid was continuously infused into the bladder using a syringe pump at a rate of 0.1 mL/min to cause the bladder to contract repeatedly each time it became full. This is referred to as a volume-evoked micturition reflex or contraction. […]
# In order to evaluate the effects of epidurally administered analgesics on normal and painful bladder activity (frequency of reflex bladder contractions), test drugs were continuously administered via an epidural catheter with the tip placed in the mid-lumbar epidural space. […] In the experiments depicted in FIGS. 5 and 6, the baseline bladder activity was measured before implanting the epidural infusion system, the infusion system was implanted on day 0 and cystometrograms were recorded on three consecutive days during which bupivacaine (25 μg/day) was infused into the lumbar epidural space.
# Bupivacaine at 25 μg/day reduced acetic acid induced bladder hypermotility by approximately 3 fold on days 2 and 3. The frequency of bladder contraction observed during acetic acid infusion and epidural bupivacaine administration was similar to the baseline bladder activity measured during saline infusion (0.206±0.046 day 3 acetic acid and epidural bupivacaine vs 0.295±0.035 baseline saline).
# [2] = tested on: normal bladder activity (frequency of reflex bladder contractions); assay: Epidural infusion of bupivacaine in rats, intravesical saline infusion (normal bladder activity, cystometrogram); type: in vivo, rat; conditions: epidural infusion 25 μg/day, saline infusion into bladder
# Experimental: as §1, with “5” for “6”, “saline.” for “acetic acid as described in Example 4.”, “treatment as described in Example 4.” for “treatment.”
# as §2, with “contraction. A repeated series of bladder contractions (pressure spikes) over time was collected using this method. To mimic normal bladder activity, 0.9% saline was infused into the bladder; to mimic painful bladder activity, a dilute solution of acetic acid (0.5%) was infused into the bladder.” for “contraction.”
smiles,measurement,setting,value
"CCCCN1CCCCC1C(=O)Nc1c(C)cccc1C (centres unmarked) [bupivacaine, 1-butyl-N-(2,6-dimethylphenyl)piperidine-2-carboxamide]",frequency of bladder contraction reflexes vs baseline,"[1]; 0.5% acetic acid infusion into bladder, all three days",significantly reduced
same,frequency of bladder contraction,"[1]; acetic acid infusion, day 3, mean ± SEM",0.206±0.046 reflexes per min
same,reduction of acetic acid induced bladder hypermotility,[1]; days 2 and 3,approximately 3 fold
same,effects on normal bladder activity measured during saline infusion,"[2]; day 1, vs baseline",minimal effects
same,contraction rate relative to the baseline reflex contraction rate,[2]; days two and three,statistically significant reductions
